Holding throughout (assay type): cell-based
Assay [1] has as its target T1, hGIPR (Homo sapiens, UniProt P48546).
T1 construct: expressed in transfected cells
T1 sequence (P48546 22-466): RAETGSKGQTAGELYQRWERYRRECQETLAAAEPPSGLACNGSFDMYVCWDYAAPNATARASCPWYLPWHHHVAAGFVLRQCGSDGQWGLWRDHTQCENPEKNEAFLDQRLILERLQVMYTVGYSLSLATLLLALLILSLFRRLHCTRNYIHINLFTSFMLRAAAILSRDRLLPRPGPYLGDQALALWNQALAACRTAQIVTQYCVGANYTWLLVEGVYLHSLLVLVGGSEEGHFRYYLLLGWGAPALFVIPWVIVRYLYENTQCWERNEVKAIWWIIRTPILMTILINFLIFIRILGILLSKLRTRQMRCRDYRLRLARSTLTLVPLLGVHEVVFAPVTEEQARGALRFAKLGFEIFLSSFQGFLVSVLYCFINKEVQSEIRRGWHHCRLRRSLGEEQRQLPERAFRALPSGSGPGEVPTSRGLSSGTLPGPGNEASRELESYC
The assay can be described thus: Functional cAMP formation (HTRF) in HEK-293 clonal cells expressing hGIPR, 0.1% bovine casein, without or with 1.0% human serum albumin. The following applies: for Emax: read-out: hGIPR Emax, % ± SEM; for EC50: geometric mean, read-out: hGIPR EC50, nM (SEM, n). The procedure, abridged: (§1)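 Cells were stimulated with peptide for 30 min at 37° C, then lysed in buffer carrying cAMP-d2 and anti-cAMP Eu3+-cryptate for a competitive HTRF read after at least 60 min at room temperature. The 665/620 nm ratio was converted to nM cAMP against a standard curve.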

Assay [2] has as its target T2, hGCGR (Homo sapiens, UniProt P47871).
T2 construct: expressed in transfected cells
The assay can be described thus: Functional cAMP formation (HTRF) in HEK-293 clonal cells expressing hGCGR, 0.1% bovine casein, without or with 1.0% human serum albumin. Particulars: geometric mean, read-out: hGCGR EC50, nM (SEM, n). The procedure, abridged:
as §1
In general terms: Changes in cAMP serve as a functional read-out for many G protein-coupled receptors.

The target in assay [3] is hGLP-1R (Homo sapiens, UniProt P43220). As to the kind of experiment: Functional cAMP formation (HTRF) in HEK-293 clonal cells expressing hGLP-1R, 0.1% bovine casein, without or with 1.0% human serum albumin. The arrangement: expressed in transfected cells. Particulars: for Emax: read-out: hGLP-1R Emax, % ± SEM; for EC50: geometric mean, read-out: hGLP-1R EC50, nM (SEM, n). The method in brief:
as §1

The mark [4] stands for this setting: HEK293, 0.1% bovine casein and 1.0% human serum albumin, 37° C., percent of maximal response to GIP(1-42)NH2.
[5] abbreviates: HEK293, cAMP, 37° C., 0.1% bovine casein, percent of maximal response to GIP(1-42)NH2, arithmetic mean.
The mark [6] stands for this setting: cAMP, 37° C., 0.1% bovine casein (no human serum albumin).
Setting [7] is: 0.1% bovine casein and 1.0% human serum albumin, 37° C.
The mark [8] stands for this setting: HEK293, 0.1% bovine casein and 1.0% human serum albumin, 37° C., percent of maximal response to GLP-1(7-36)NH2.
Where [9] appears, read: cAMP, incubated at 37° C., 0.1% bovine casein (no human serum albumin).
The mark [10] stands for this setting: HEK293, percent of maximal response to GLP-1(7-36)NH2, 37° C., 0.1% bovine casein, arithmetic mean.

Each structure is given as a SMILES string. Like-named read-outs stand apart in the source and are kept apart here. Where only a bound is given, the exact number is not on record here.

For orientation: Emax means the maximal effect, on the per cent scale that the assay sets. As a reminder, the EC50 is the concentration at which the effect is half-maximal.

T2 sequence (P47871 26-477): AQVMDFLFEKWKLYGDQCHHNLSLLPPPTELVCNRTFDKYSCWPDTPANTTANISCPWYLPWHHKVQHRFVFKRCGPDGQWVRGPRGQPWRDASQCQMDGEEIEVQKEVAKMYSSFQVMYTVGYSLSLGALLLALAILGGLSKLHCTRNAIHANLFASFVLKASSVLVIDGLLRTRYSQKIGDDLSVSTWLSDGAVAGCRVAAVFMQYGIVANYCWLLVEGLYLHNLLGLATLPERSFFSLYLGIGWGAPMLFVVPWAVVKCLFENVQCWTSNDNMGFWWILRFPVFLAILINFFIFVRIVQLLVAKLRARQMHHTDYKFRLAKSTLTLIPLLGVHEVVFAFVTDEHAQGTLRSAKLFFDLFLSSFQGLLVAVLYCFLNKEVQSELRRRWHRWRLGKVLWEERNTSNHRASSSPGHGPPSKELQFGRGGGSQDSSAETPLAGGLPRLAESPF
Chain of hGLP-1R (P43220 24-463): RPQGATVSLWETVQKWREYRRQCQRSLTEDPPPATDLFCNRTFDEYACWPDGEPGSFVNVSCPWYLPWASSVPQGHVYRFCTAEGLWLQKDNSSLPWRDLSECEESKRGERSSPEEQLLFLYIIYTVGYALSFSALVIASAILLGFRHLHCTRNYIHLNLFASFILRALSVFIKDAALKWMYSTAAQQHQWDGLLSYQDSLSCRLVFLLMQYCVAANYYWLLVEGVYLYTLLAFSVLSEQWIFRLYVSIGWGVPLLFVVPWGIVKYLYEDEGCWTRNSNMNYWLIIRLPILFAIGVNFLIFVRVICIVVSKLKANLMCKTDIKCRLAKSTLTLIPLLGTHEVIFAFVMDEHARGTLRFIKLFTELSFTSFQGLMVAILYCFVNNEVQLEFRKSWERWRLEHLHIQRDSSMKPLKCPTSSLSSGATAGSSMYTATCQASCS

For `CC[C@H](C)[C@H](NC(=O)[C@H](CCCN)NC(=O)[C@H](CC(=O)O)NC(=O)[C@H](CC(C)C)NC(=O)[C@](C)(CC(C)C)NC(=O)[C@@H](NC(=O)[C@](C)(CO)NC(=O)[C@@H](NC(=O)[C@H](CC(=O)O)NC(=O)[C@H](CO)NC(=O)[C@@H](NC(=O)[C@](C)(Cc1ccccc1F)NC(=O)[C@@H](NC(=O)CNC(=O)[C@H](CCC(=O)O)NC(=O)C(C)(C)NC(=O)[C@@H](N)Cc1ccc(O)cc1)[C@@H](C)O)[C@@H](C)O)C(C)C)[C@@H](C)CC)C(=O)N[C@@H](C)C(=O)N[C@@H](CCC(N)=O)C(=O)NC(C)(C)C(=O)N[C@@H](CCC(=O)O)C(=O)N[C@@H](Cc1ccccc1)C(=O)N[C@H](C(=O)N[C@@H](CCCCNC(=O)COCCOCCNC(=O)COCCOCCNC(=O)CC[C@H](NC(=O)CCCCCCCCCCCCC(=O)O)C(=O)O)C(=O)N[C@@](C)(Cc1ccc(O)cc1)C(=O)N[C@@H](CC(C)C)C(=O)N[C@H](C(=O)N[C@@H](CCCCNC(=O)COCCOCCNC(=O)COCCOCCNC(=O)CC[C@H](NC(=O)CCCCCCCCCCCCC(=O)O)C(=O)O)C(=O)NCC(=O)NCC(=O)N1CCC[C@H]1C(=O)N[C@@H](CO)C(=O)N[C@@H](CO)C(=O)NCC(=O)N[C@@H](C)C(=O)N1CCC[C@H]1C(=O)N1CCC[C@H]1C(=O)N1CCC[C@H]1C(=O)N[C@@H](CO)C(N)=O)[C@@H](C)CC)[C@@H](C)CC` [Example 305], the Emax in assay [1] (setting [4]) worked out at 95.4%; in assay [1] (setting [5]) it was 105%; in assay [3] (setting [8]), 125%. Also, the EC50 was 0.0289 nM in assay [1] (setting [6]), over 9950 nM in assay [2] (setting [7]), over 9950 nM in assay [2] (setting [6]) and 0.629 nM in assay [3] (setting [6]).

Turning to `CC[C@H](C)[C@H](NC(=O)[C@H](CCCN)NC(=O)[C@H](CC(=O)O)NC(=O)[C@H](CC(C)C)NC(=O)[C@](C)(CC(C)C)NC(=O)[C@@H](NC(=O)[C@H](CO)NC(=O)[C@H](Cc1ccc2ccccc2c1)NC(=O)[C@H](CC(=O)O)NC(=O)[C@H](CO)NC(=O)[C@@H](NC(=O)[C@](C)(Cc1ccccc1F)NC(=O)[C@@H](NC(=O)CNC(=O)[C@H](CCC(=O)O)NC(=O)C(C)(C)NC(=O)[C@@H](N)Cc1ccc(O)cc1)[C@@H](C)O)[C@@H](C)O)[C@@H](C)CC)C(=O)N[C@@H](C)C(=O)N[C@@H](CCC(N)=O)C(=O)NC(C)(C)C(=O)N[C@@H](CCCCNC(=O)COCCOCCNC(=O)COCCOCCNC(=O)CCCCCCCCCCCCC(=O)O)C(=O)N[C@@H](Cc1ccccc1)C(=O)N[C@H](C(=O)N[C@H](CCC(=O)O)C(=O)N[C@@](C)(Cc1ccc(O)cc1)C(=O)N[C@@H](CC(C)C)C(=O)N[C@H](C(=O)N[C@@H](CCC(=O)O)C(=O)NCC(=O)NCC(=O)N1CCC[C@H]1C(=O)N[C@@H](CO)C(=O)N[C@@H](CO)C(=O)NCC(=O)N[C@@H](C)C(=O)N1CCC[C@H]1C(=O)N1CCC[C@H]1C(=O)N1CCC[C@H]1C(=O)N[C@@H](CO)C(=O)N[C@@H](CCCCNC(=O)COCCOCCNC(=O)COCCOCCNC(=O)CCCCCCCCCCCCC(=O)O)C(N)=O)[C@@H](C)CC)[C@@H](C)CC` [Example 258], the Emax in assay [1] (setting [5]) came out at 90.3%; in assay [3] (HEK293, cAMP, 37° C., 0.1% bovine casein, percent of maximal response to GLP-1(7-36)NH2, arithmetic mean), 94.9%. Moreover, the EC50 in assay [1] (setting [6]) was 0.0473 nM; in assay [2] (setting [7]), over 9950 nM; in assay [2] (setting [6]), over 9950 nM.

For `CC[C@H](C)[C@H](NC(=O)[C@H](CCCN)NC(=O)[C@H](CC(=O)O)NC(=O)[C@H](CC(C)C)NC(=O)[C@](C)(CC(C)C)NC(=O)[C@@H](NC(=O)[C@H](CO)NC(=O)[C@H](Cc1ccncc1)NC(=O)[C@H](CC(=O)O)NC(=O)[C@H](CO)NC(=O)[C@@H](NC(=O)[C@](C)(Cc1ccccc1F)NC(=O)[C@@H](NC(=O)CNC(=O)[C@H](CCC(=O)O)NC(=O)C(C)(C)NC(=O)[C@@H](N)Cc1ccc(O)cc1)[C@@H](C)O)[C@@H](C)O)[C@@H](C)CC)C(=O)N[C@@H](C)C(=O)N[C@@H](CCC(N)=O)C(=O)NC(C)(C)C(=O)N[C@@H](CCC(=O)O)C(=O)N[C@@H](Cc1ccccc1)C(=O)N[C@H](C(=O)N[C@@H](CCCCNC(=O)COCCOCCNC(=O)COCCOCCNC(=O)CCCCCCCCCCCCC(=O)O)C(=O)N[C@@](C)(Cc1ccc(O)cc1)C(=O)N[C@@H](CC(C)C)C(=O)N[C@H](C(=O)N[C@@H](CCCCNC(=O)COCCOCCNC(=O)COCCOCCNC(=O)CCCCCCCCCCCCC(=O)O)C(=O)NCC(=O)NCC(=O)N1CCC[C@H]1C(=O)N[C@@H](CO)C(=O)N[C@@H](CO)C(=O)NCC(=O)N[C@@H](C)C(=O)N1CCC[C@H]1C(=O)N1CCC[C@H]1C(=O)N1CCC[C@H]1C(=O)N[C@@H](CO)C(N)=O)[C@@H](C)CC)[C@@H](C)CC` [Example 192], the Emax was found to be 93.6 ± 3.98% in assay [1] (setting [4]); 96.5 ± 4.86% in assay [1] (HEK293, percent of maximal response to GIP(1-42)NH2, 37° C., 0.1% bovine casein, arithmetic mean); 121 ± 2.56% in assay [3] (setting [8]); 100 ± 2.34% in assay [3] (setting [10]). The EC50 in assay [1] (setting [9]) was 0.0375 nM; in assay [2] (setting [7]), over 9950 nM; in assay [2] (setting [9]) it was over 9950 nM; in assay [3] (setting [7]), 11.2 nM; in assay [3] (setting [9]), 0.518 nM.

As to `CCCCCCCCCCCCCCCC(=O)N[C@@H](CCC(=O)NCCOCCOCC(=O)NCCOCCOCC(=O)NCCOCCOCC(=O)NCCCC[C@H](NC(=O)CNC(=O)CNC(=O)[C@H](CCC(=O)O)NC(=O)[C@@H](NC(=O)[C@H](CC(C)C)NC(=O)[C@](C)(Cc1ccc(O)cc1)NC(=O)[C@@H](CCC(=O)O)NC(=O)[C@@H](NC(=O)[C@H](Cc1ccccc1)NC(=O)[C@H](CCC(=O)O)NC(=O)C(C)(C)NC(=O)[C@H](CCC(N)=O)NC(=O)[C@H](C)NC(=O)[C@H](CCCCNC(=O)COCCOCCNC(=O)COCCOCCNC(=O)COCCOCCNC(=O)CC[C@H](NC(=O)CCCCCCCCCCCCCCC)C(=O)O)NC(=O)[C@H](CCCN)NC(=O)[C@H](CC(=O)O)NC(=O)[C@H](CC(C)C)NC(=O)[C@](C)(CC(C)C)NC(=O)[C@@H](NC(=O)[C@H](CO)NC(=O)[C@H](Cc1ccncc1)NC(=O)[C@H](CC(=O)O)NC(=O)[C@H](CO)NC(=O)[C@@H](NC(=O)[C@](C)(Cc1ccccc1F)NC(=O)[C@@H](NC(=O)CNC(=O)[C@H](CCC(=O)O)NC(=O)C(C)(C)NC(=O)[C@@H](N)Cc1ccc(O)cc1)[C@@H](C)O)[C@@H](C)O)[C@@H](C)CC)[C@@H](C)CC)[C@@H](C)CC)C(=O)N[C@@H](CO)C(=O)N[C@@H](CO)C(=O)NCC(=O)N[C@@H](C)C(=O)N1CCC[C@H]1C(=O)N1CCC[C@H]1C(=O)N1CCC[C@H]1C(=O)N[C@@H](CO)C(N)=O)C(=O)O` [Example 31], the EC50 in assay [1] (setting [7]) is 0.147 nM; in assay [2] (setting [7]) it was over 9950 nM; in assay [2] (setting [9]), over 9950 nM; in assay [3] (setting [7]), 0.545 nM. Also, the Emax came to 88.9% in assay [1] (setting [4]), 109 ± 7.91% in assay [3] (setting [8]) and 91.3 ± 16.1% in assay [3] (setting [10]).

The values are drawn from patent US20230265151A1, “GIP/GLP1 CO-AGONIST COMPOUNDS” (priority 2020, published 2023).
